Results on 13 compounds are retold here after patent US6380263B1, “6-substituted pyrimidine 3-oxides for promoting pigmentation of the skin/hair” (Societe L'Oreal, priority 1996, dated 2002).

Each structure is given as a SMILES string.

One test concerns hair pigmentation.
Assay: not given
Conditions: bald men treated with this compound; cited from earlier work.
As for `Nc1cc(N2CCCCC2)nc(N)[n+]1[O-]` [Minoxidil, 2,4-diamino-6-piperidinopyrimidine 3-oxide, reference compound], the “effect on hair pigmentation” value is recorded as “stimulatory effect on hair pigmentation”.

The subject of a further test is purified fungal tyrosinase (EC 1.14.18.1). The test is described as follows: Modulation of tyrosinase activity (dopachrome formation from L-tyrosine, spectrophotometry at 475 nm). Format: biochemical. Particulars: 100 μl of 1 mM derivative solution (PBS/1% ethanol) in 1000 μl mixture; substrate L-tyrosine; 37° C.; at least 30 minutes. How it is done:
In order to determine the activity of the pyrimidine derivatives substituted in position 6, the simple and rapid technique is employed that entails measurement by incubating an optionally purified tyrosinase and one of its substrates in a suitable medium in the presence of a test compound, and then comparing the measurements taken with the results of identical measurements taken during the incubation of optionally purified tyrosinase with one of its substrates in the absence of the test compound.
A purified tyrosinase was incubated in the presence of one of its substrates in a suitable medium, in the presence or absence of a pyrimidine 3-oxide derivative, substituted in position 6. The activity of the enzyme was evaluated by measuring the amount of a product of conversion of the substrate formed during the reaction. The result obtained in the presence of a derivative was compared with the result obtained in the absence of a derivative.
The substrate used was L-tyrosine (marketed by Sigma), a stock solution of which was prepared in phosphate-buffered saline (PBS) at a concentration of 0.5 mM.
The enzyme used was a purified fungal tyrosinase (EC 1.14.18.1) marketed by Sigma. A stock solution of this enzyme was prepared in PBS at a concentration of 5 mg/ml, which represents a concentration of about 19,500 international units of tyrosinase per milliliter.
The product of conversion of the tyrosine by tyrosinase, dopachrome, was measured by spectrophotometry at a wavelength of 475 nm using a Perkin Elmer type apparatus.
The derivative to be tested was prepared in solution in PBS containing 1% ethanol at a concentration of 1 mM.
The following reagents were mixed together in a spectrophotometer cell:
500 μl of tyrosine solution,
390 μl of phosphate buffer,
10 μl of fungal tyrosinase solution,
100 μl of solution of test derivative or of PBS/1% ethanol (control).
The mixture was then incubated at a temperature of 37° C. and the dopachrome formed was measured continuously for at least 30 minutes.
The results obtained are expressed as a % of activation of the tyrosinase activity relative to the value obtained with the control (in the absence of derivative).
As to `CCNc1cc(N(C)C)nc(NCC)[n+]1[O-]` [2,4-bis-ethylamino-6-dimethylaminopyrimidine 3-oxide], the “Activation (% of activation of the tyrosinase activity relative to the control)” value was determined as 60%. On the same count and under the same terms, as for `CCCCCCNc1cc(N2CCCCC2)nc(N)[n+]1[O-]` [2-amino-4-hexylamino-6-piperidinopyrimidine 3-oxide], the figure is 47%; as for `CC(C)Nc1cc(N(C)C)nc(N)[n+]1[O-]` [2-amino-4-isopropylamino-6-dimethylaminopyrimidine 3-oxide], 46%. The same measure, in the same setting: as for `Nc1nc(N2CCCCC2)cc(NCCO)[n+]1[O-]` [2-amino-4-(2-hydroxyethylamino)-6-piperidinopyrimidine 3-oxide], the figure is 43%; as for `CNc1cc(N2CCCCC2)nc(N)[n+]1[O-]` [2-amino-4-methylamino-6-piperidinopyrimidine 3-oxide], 50%. The same measure, in the same setting: for `CCCNc1cc(N2CCCCC2)nc(NCCC)[n+]1[O-]` [2,4-bis-propylamino-6-piperidinopyrimidine 3-oxide] the value was 57%; for `Nc1nc(N2CCCCC2)cc(NCc2ccccc2)[n+]1[O-]` [2-amino-4-benzylamino-6-piperidinopyrimidine 3-oxide], 45%. In the case of `CCCCNc1cc(N(C)C)nc(N)[n+]1[O-]` [2-amino-4-butylamino-6-dimethylaminopyrimidine 3-oxide], the “Activation (% of activation of the tyrosinase activity relative to the control)” value amounted to 51%. On the same count and under the same terms, as for `Nc1cc(N2CCCCC2)nc(N)[n+]1[O-]` [Minoxidil, 2,4-diamino-6-piperidinopyrimidine 3-oxide, reference compound], the figure is 41%.

`CCCNc1cc(N2CCCCC2)nc(N)[n+]1[O-]` [2-amino-4-propylamino-6-piperidinopyrimidine 3-oxide]: the “Activation (% of activation of the tyrosinase activity relative to the control)” value was 46%. Still for that read-out and setting: for `CNc1cc(N(C)C)nc(NC)[n+]1[O-]` [2,4-bis-methylamino-6-dimethylaminopyrimidine 3-oxide] the value was 61%. On to `CCCNc1cc(N(C)C)nc(NCCC)[n+]1[O-]` [2,4-bis-propylamino-6-dimethylaminopyrimidine 3-oxide], for which the “Activation (% of activation of the tyrosinase activity relative to the control)” value was determined as 55%.

On to `CCCNc1cc(N(C)C)nc(N)[n+]1[O-]` [2-amino-4-propylamino-6-dimethylaminopyrimidine 3-oxide], for which the “Activation (% of activation of the tyrosinase activity relative to the control)” value stood at 50%.
